{
  "source": "patent US20030092633A1",
  "about": "“Preventing desensitization of receptors” (priority 2001, published 2003)",
  "key": {"β-adrenergic receptor": {"system": "β-adrenergic receptor", "assay": "Saturation binding with radiolabeled 125I-cyanopindolol in purified cardiac membrane of treated mice", "assay_type": "in vivo", "protocol": "Mice were treated with 10 ng/kg/day of GSNO or PBS infused continuously for 1 week through an azlet miniosmotic pump placed subcutaneously. Another set of mice was treated for 7 days with isoproterenol (30 mg/kg/day), and the fourth and final group received for 7 days, isoproterenol (30 mg/kg/day) plus GSNO (10 ng/kg/day). The mice were sacrificed and heart tissue was removed. Saturation binding with radiolabeled 1^125-cyanopindolol was carried out in purified cardiac membrane according to the procedure of Iaccarino et al, Circulation 98, 17A3-17A9 (1998)."}, "[1]": {"assay": "Ratio of heart weight to body weight after 1 week continuous infusion", "assay_type": "in vivo", "conditions": "mice, infused continuously 1 week; GSNO 10/ng/kg/day; isoproterenol 30 mg/kg/day; combination 10 mg/kg/day GSNO plus 30 mg/kg/day isoproterenol; FIG. 1", "protocol": "Mice were treated with 10/ng/kg/day of GSNO, or with PBS (control) or with isoproterenol (at a dosage of 30 mg/kg/day) or with 10 mg/kg/day of GSNO plus 30 mg/kg/day isoproterenol, infused continuously for 1 week. The animals were sacrificed and the hearts were weighed and a ratio of heart weight to body weight was determined for each case. The results are set forth in FIG. 1 where hw:bw, i.e., the legend on the vertical axis, is the ratio of heart weight to total body weight and “ISO” means isoproterenol. […] The increase in size of heart (hypertrophy) is an advantage especially in the case of a patient on a left ventricular heart assist device awaiting heart transplant and in the case of a patient who has had heart surgery and cannot be disconnected from a heart pump without loss of heart function. The asterisks in FIG. 1 mean […] compared to control."}, "GRK": {"system": "GRK", "assay": "GRK phosphorylation of synthetic peptide substrate with 32P-ATP (isolated system)", "assay_type": "biochemical", "conditions": "GSNO 500 μM, 50 μM, 5 μm; counts per minute; FIG. 3", "protocol": "An isolated system was provided consisting of medium, GRK, standard synthetic peptide substrate and radiolabeled ^32P-adenosine triphosphate, i.e., ^32P-ATP, as a source of phosphate. Runs were carried out on the system without additives, and with 500 μM glutathione (GSH) present and with GSNO (500 μM) present or with GSNO (50 μM) present or with GSNO (5 μm) present. The amount of bound ^32P was measured in counts per minute (CPM)."}, "[2]": {"assay": "Example I: patient with class 4 congestive heart failure", "assay_type": "in vivo", "protocol": "A person with class 4 congestive heart failure enters the hospital with shortness of breath and bradyacardia. […] The patient is subsequently switched to IV dobutamine at 10 μg per kg per minute titrated to cardiac output. Over the following three days the drug is increased to 30 μg per kg per minute to maintain cardiac output. […] The patient undergoes bypass surgery and does well even though they have been viewed as at high risk."}, "[3]": {"assay": "Example II: patient on left ventricular assist device awaiting cardiac transplantation", "assay_type": "in vivo", "conditions": "IV GSNO 4 nmol per kg per minute", "text": "A person awaiting cardiac transplantation is placed a left ventricular assist device, but continues to suffer from severe shortness of breath."}, "[4]": {"assay": "Example III: patient who cannot be removed from bypass after coronary artery bypass grafting", "assay_type": "in vivo", "conditions": "intravenous GSNO 2 nmol per kg per minute, after two hours", "text": "A person with an ejection fraction of 17% undergoes coronary artery bypass grafting. The surgeons are unable to remove the patient from bypass."}, "[5]": {"assay": "Example IV: metastatic prostate cancer patient with bone pain unresponsive to opiates", "assay_type": "in vivo", "conditions": "intravenous GSNO 10 nmol per kg per minute in conjunction with morphine", "text": "A person with metastatic prostate cancer is suffering from severe bone pain unresponsive to opiates."}, "[6]": {"assay": "Example VI: cystic fibrosis patient with shortness of breath", "assay_type": "in vivo", "conditions": "inhaled GSNO, 3 cc of a 10 mM solution, pH 7, 4×/day", "protocol": "A person with cystic fibrosis enters the hospital complaining of shortness of breath. […] They are started on inhaled GSNO (3 cc of a 10 mM solution, pH 7, 4×/day)."}, "[7]": {"assay": "Example V: heroine addict, dose tapering, withdrawal symptoms", "assay_type": "in vivo, patient", "conditions": "ethyl nitrite intravenously 2 nmol per kg per minute", "text": "A heroine addict enters a clinic where their dose is tapered gradually. In order to avoid symptoms of withdrawal, ethyl nitrite is started intravenously at 2 nmol per kg per minute and symptoms of withdrawal, including sweats and shaking, are ameliorated."}, "[8]": {"assay": "Example VII: patient with rheumatoid arthritis and pulmonary infiltrates", "assay_type": "in vivo", "conditions": "intravenous ethyl nitrite 2 nmol per kg per minute", "text": "A person with rheumatoid arthritis and pulmonary infiltrates complains of shortness of breath and knee pain."}},
  "data": [
    {"smiles": "N[C@@H](CCC(=O)N[C@@H](CSN=O)C(=O)NCC(=O)O)C(=O)O", "note": "[GSNO, S-nitrosoglutathione]", "values": [
      {"measurement": "amount of β-adrenergic receptor", "setting": "β-adrenergic receptor; GSNO 10 ng/kg/day infused 1 week, no isoproterenol", "result": 40, "unit": "fmol per mg/protein"},
      {"measurement": "ratio of heart weight to body weight (hw:bw), size of heart muscle", "setting": "[1]", "result": "increases the size of the heart muscle"},
      {"measurement": "amount of bound 32P (incorporation of 32P into substrate)", "setting": "GRK", "result": "concentration dependent reduction in incorporation of ^32P"},
      {"measurement": "cardiac output", "setting": "[2]; IV GSNO 2 nmol per kg per minute, on dobutamine 30 μg per kg per minute, over the following 24 hours", "result": "improved"},
      {"measurement": "cardiac output", "setting": "[3]", "result": "increase in cardiac output"},
      {"measurement": "shortness of breath", "setting": "[3]", "result": "decrease in shortness of breath"},
      {"measurement": "removal from bypass", "setting": "[4]", "result": "successfully removed from bypass"},
      {"measurement": "bone pain", "setting": "[5]", "result": "relieves their pain"},
      {"measurement": "FEV1 (acute)", "setting": "[6]", "result": "does not change acutely"},
      {"measurement": "blood pressure", "setting": "[6]", "result": "remains stable"},
      {"measurement": "symptoms of shortness of breath", "setting": "[6]; with corresponding improvement in FEV1", "result": "resolve over the following 48 hours"}
    ]},
    {"smiles": "N[C@@H](CSN=O)C(=O)O", "note": "[S-nitroso-cysteine]", "values": [
      {"measurement": "amount of bound 32P (incorporation of 32P into substrate)", "setting": "GRK", "result": "same result of GRK inhibition and interference with substrate phosphorylation"}
    ]},
    {"smiles": "CCON=O", "note": "[ethyl nitrite]", "values": [
      {"measurement": "symptoms of withdrawal, including sweats and shaking", "setting": "[7]", "result": "ameliorated"},
      {"measurement": "knee pain", "setting": "[8]", "result": "decrease in knee pain"},
      {"measurement": "respiratory status", "setting": "[8]", "result": "improvement in respiratory status"}
    ]},
    {"smiles": "CC(C)NCC(O)c1ccc(O)c(O)c1", "note": "(stereo not drawn) [isoproterenol, reference compound]", "values": [
      {"measurement": "amount of β-adrenergic receptor", "setting": "β-adrenergic receptor; isoproterenol 30 mg/kg/day for 7 days, no GSNO", "result": "20 fmol per milligram protein"},
      {"measurement": "ratio of heart weight to body weight (hw:bw), size of heart muscle", "setting": "[1]", "result": "increased the size of the heart muscle"},
      {"measurement": "symptoms (shortness of breath and bradyacardia)", "setting": "[2]; 10 μg per minute intravenous isoproterenol", "result": "resolution of symptoms"}
    ]}
  ]
}
